Assay results: patent US5399785A, “Tyrosinase activity inhibitor” (Nippon Paint Co., Ltd., priority 1992, dated 1995)

Molecular target: tyrosinase (Sigma Co.)
Experiment: Measurement of tyrosinase activity inhibition (L-DOPA substrate, absorbance at 417 nm)
Assay type: biochemical
Conditions: substrate 2 mM L-DOPA, phosphate-potassium buffer pH 6.8, tyrosinase 0.5 mg/ml, absorbance 417 nm; read-out: IC50, concentration of tyrosinase activity inhibitor when the tyrosinase activity inhibition (%) is 50%
Protocol: The measurement was conducted by the following method.
The reaction reagent used are as follows:
Substrate: 2 mM L-DOPA (Wako Junyaku Co.)
Buffer: 0.1 mM phosphate-potassium solution (pH 6.8)
Inhibitor: 1% solution of the compound of the formula (I), 4-ethylresorcinol, compound of the formula (II), 5-methylresorcinol and compound of the formula (III), 6,6'-di-n-propyl-2,2',4,4'-tetrahydroxydiphenylmethane
Enzyme: tyrosinase (Sigma Co.), 0.5 mg/ml
(2) Measurement of tyrosinase activity inhibition %
In the case of measuring tyrosinase activity inhibition %, a sample solution (No.1 to No.3) was prepared in a spectrophotometric cell (1 ml), by mixing each ingredient in the following formulation shown in Table 1. […]
Formulation of sample solution (ml)
An enzyme solution (0.20 ml) was added to the cell. Three minutes later, the measurement of temporal changes of an absorbance (417 nm) by means of a spectrophotometer had started. The inhibition % was calculated based on the following equation:
Inhibition %=[1-(Ab.3-Ab.1/Ab.2-Ab.1)]×100

Row | IC50 | Structure (SMILES)
1 | 25 µM | CCCc1cc(O)cc(O)c1Cc1c(O)cc(O)cc1CCC [Example 3, 6,6'-di-n-propyl-2,2',4,4'-tetrahydroxydiphenylmethane]
2 | 2 µM | CCc1ccc(O)cc1O [drawing 4 Ethyl, 4-ethylresorcinol]
3 | 8 µM | Cc1ccc(O)cc1O [drawing 4 Methyl]
4 | 0.7 µM | CCCCCCCc1ccc(O)cc1O [drawing 4 n-Heptyl]
5 | 0.9 µM | CCCCCCCCCc1ccc(O)cc1O [drawing 4 n-Nonyl]
6 | 0.8 µM | CCCCCc1ccc(O)cc1O [drawing 4 n-Pentyl]
7 | 0.9 µM | CCCc1ccc(O)cc1O [drawing 4 n-Propyl]
8 | 700 µM | CCc1cc(O)cc(O)c1 [drawing 5 Ethyl]
9 | 5000 µM | Cc1cc(O)cc(O)c1 [drawing 5 Methyl, 5-methylresorcinol]
10 | 200 µM | CCCCCCCc1cc(O)cc(O)c1 [drawing 5 n-Heptyl]
11 | 200 µM | CCCCCCCCCc1cc(O)cc(O)c1 [drawing 5 n-Nonyl]

Row | Structure (SMILES) | IC50
12 | CCCCCc1cc(O)cc(O)c1 [drawing 5 n-Pentyl] | 200 µM
13 | CCCc1cc(O)cc(O)c1 [drawing 5 n-Propyl] | 500 µM

Tested on: tyrosinase
Experiment: not given
Conditions: as described in Japanese Patent Kokai No. 4-169515; cited from earlier work

Row | Structure (SMILES) | tyrosinase activity inhibition effect
14 | NC[C@H]1CC[C@H](C(=O)O)CC1 [tranexamic acid] | low tyrosinase activity inhibition effect

Tested on: not given
Experiment: not given
Conditions: prior-art statement, no test described; cited from earlier work

Row | Structure (SMILES) | toxicity
15 | OC[C@H]1O[C@@H](Oc2ccc(O)cc2)[C@H](O)[C@@H](O)[C@@H]1O [arbutin] | has toxicity
